From patent publication US20250205260A1, “ADJUNCTIVE TREATMENT OF MYCOBACTERIAL DISEASES” (UNIVERSITY OF SOUTHERN CALIFORNIA, priority 2022, published 2025)
≈ marks a conversion by molar mass, not a printed value.

Tested on: ΔtreS (TreS-deficient M. tuberculosis)
Assay type: cell-based, Mycobacterium tuberculosis

| SMILES | IC95 ΔtreS |
| --- | --- |
| NNC(=O)c1ccncc1 [INH, isoniazid] | 0.12 µg/mL (≈ 0.875 µM) |
| COc1nc2ccc(Br)cc2cc1[C@@H](c1ccccc1)[C@@](O)(CCN(C)C)c1cccc2ccccc12 [BDQ, bedaquiline] | 0.21 µg/mL (≈ 0.378 µM) |
